{"source": "ChEMBL document CHEMBL3763090", "about": "“A pharmacological perspective on the use of Brazilian Red Propolis and its isolated compounds against human diseases” (Eur J Med Chem, 2016)", "assay": "Antioxidant activity assessed as inhibition of linoleic acid oxidation at 90 ug/ml measured over 60 mins by beta-carotene bleaching test", "type": "physicochemical", "settings": "1 h", "data": [{"smiles": "COc1ccc([C@@H]2COc3cc(O)ccc3C2)c(O)c1", "values": [{"measurement": "inhibition (INH)", "result": 39.5, "unit": "%"}]}]}
